Read-outs that look alike come from different tables or passages of the source.
Assays:
human CB1 receptor = target: T1, human CB1 receptor (Homo sapiens, UniProt P21554); test: CB1 receptor affinity ([3H]-CP-55,940 displacement, HEK cell membranes); type: binding; settings: read-out: CB1 receptor affinity [% inhibition @ 10 μM]
T1 construct: expressed in transfected cells; host or cells: human embryonic kidney (HEK) cells, Semliki Forest Virus system, membrane preparations
Experimental: (§1) The affinity of the compounds of the invention for cannabinoid receptors was determined using membrane preparations of human embryonic kidney (HEK) cells in which the human CB1 receptor is transiently transfected using a Semliki Forest Virus system in conjunction with [3H]-CP-55,940 as radioligand. After incubation of freshly prepared cell membrane preparation with the [^3H]-ligand, with or without addition of compounds of the invention, separation of bound and free ligand was performed by filtration over glass fiber filters. Radioactivity on the filter was measured by scintillation counting.
(§2) The ability of the compounds to displace the radioligand [^3H]-CP-55,940 was measured at a concentration of 10 μM and values provided as [% inhibition @ 10 μM] both for the CB1 and CB2 receptor assay, The lower % inhibition is, the lower the likelihood of side effects based on CB1 or CB2 receptor inhibition is.

ABCA1 protein = test: Detection of upregulation of ABCA1 protein in cells (ApoA-I binding, high content imaging); type: cell-based; settings: THP-1 macrophage cells; for EC50: 24 hrs compound incubation, read-out: EC50 [μM] ABCA1 protein increasing efficacy; for % increase of ABCA1 at 3 μM: compound at 3 μM, 24 hrs
Experimental: The ability of compounds of the invention to increase the level of ABCA1 protein is determined in replicate cultures of THP-1 macrophage cells in 96-well microplates. Cells are plated at an initial density of 100,000 cells/well in 100 μl medium and differentiated to adherent macrophages with the addition of PMA (100 nM) for 68 hrs in 10% fetal bovine serum, 3 μl/L of b-mercaptoethanol, RPMI-1640 medium. Then, cells are incubated with RPMI-1640 medium containing 1% FCS, 25 μg/ml acetylated LDL, for 24 hours at 37° C. Following incubation with acetylated LDL, cells are washed twice with 50 μl PBS and incubated with 100 μl of RPMI-1640 medium containing the compound of interest solubilized in DMSO for an additional 24 hrs. The final DMSO concentration in presence of cells is maintained at 0.5%. ApoA-I binding assay using High Content Image Analysis is initiated by replacing with fresh medium, RPMI without Phenol Red, 0.2% BSA containing AlexaFluor®647 labeled ApoA-I for 2 h/37° C./5% CO2. Then, cells are fixed with 4% Formaldehyde in PBS (15 min, RT). Following Nuclei are stained with Hoechst solution (3 μM PBS) and Cytoplasm with Cell Mask Blue (2 μg/ml PBS), 15 min, RT. Finally the stained cells are fixed with a second round of formaldehyde treatment. Fixed stained cells are washed and kept in PBS at 4° C. and can be read immediately until one month after preparation.
The Alexa Fluor 647-labeled Apolipoprotein A-I (20 nM) was prepared as follows: Human recombinant Apolipoprotein A-I (ApoA-I) was exchanged to a buffer of 0.02 M NaHCO3 at pH 8.2 on an NAP desalting column (GE Healthcare) and brought to a concentration to 40 μM (1.13 mg/ml) by adjustment with the same buffer. The ApoA-I was fluorescently labeled by incubation with Alexa Fluor carboxylic acid succimidyl ester (Alexa Fluor 647, Invitrogen A-20006) at a 2:1 molar ratio (Alexa to ApoA-I) for 1 h under shaking at RT. The remaining unconjugated label was removed by buffer exchange to 0.02M NaHCO3 at pH 8.2.
Imaging and data collection were performed on an OPERA confocal microplate imaging reader using a 20× water immersion objective and UV360 or 405 laser to identify the cell nuclei and a 635 laser to identify the fluorescent ApoA-I. Eight fields of view are captured per well. Image capture and analysis was performed with the Acapella software. Background fluorescence detected in control wells without ApoA-I was subtracted.
Using XLfit3 program (ID Business Solutions Ltd. UK), the model 205 for Dose Response One Site is used to calculate the EC50 values. […] More particularly, the compounds of the present invention have EC50 values in a range of 0.1 μM to 3 μm.

human CB2 receptor = target: T2, human CB2 receptor (Homo sapiens, UniProt P34972); test: CB2 receptor affinity ([3H]-CP-55,940 displacement, HEK cell membranes); type: binding; settings: displacement of [3H]-CP-55,940 at 10 μM
T2 construct: expressed in transfected cells; host or cells: human embryonic kidney (HEK) cells, Semliki Forest Virus system, membrane preparations
Experimental: as §1, with “cannabinoid CB2” for “cannabinoid”, “CB2” for “CB1”, “[^3H]-CP-55,940” for “[3H]-CP-55,940”
as §2

[1] = displacement of [3H]-CP-55,940 at 10 μM

T1 sequence (P21554 whole entry): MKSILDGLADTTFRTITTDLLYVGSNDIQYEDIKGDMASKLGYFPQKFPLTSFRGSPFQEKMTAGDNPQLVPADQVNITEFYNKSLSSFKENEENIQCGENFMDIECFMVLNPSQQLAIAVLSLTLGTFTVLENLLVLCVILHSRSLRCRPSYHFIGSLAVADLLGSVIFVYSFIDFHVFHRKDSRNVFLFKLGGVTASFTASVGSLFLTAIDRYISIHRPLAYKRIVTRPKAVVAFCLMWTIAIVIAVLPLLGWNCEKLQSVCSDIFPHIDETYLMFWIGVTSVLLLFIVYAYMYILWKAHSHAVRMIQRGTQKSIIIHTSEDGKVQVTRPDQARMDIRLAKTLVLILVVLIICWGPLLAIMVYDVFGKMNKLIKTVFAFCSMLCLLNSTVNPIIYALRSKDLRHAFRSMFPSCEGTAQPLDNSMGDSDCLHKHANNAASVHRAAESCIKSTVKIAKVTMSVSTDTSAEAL
T2 sequence (P34972 whole entry): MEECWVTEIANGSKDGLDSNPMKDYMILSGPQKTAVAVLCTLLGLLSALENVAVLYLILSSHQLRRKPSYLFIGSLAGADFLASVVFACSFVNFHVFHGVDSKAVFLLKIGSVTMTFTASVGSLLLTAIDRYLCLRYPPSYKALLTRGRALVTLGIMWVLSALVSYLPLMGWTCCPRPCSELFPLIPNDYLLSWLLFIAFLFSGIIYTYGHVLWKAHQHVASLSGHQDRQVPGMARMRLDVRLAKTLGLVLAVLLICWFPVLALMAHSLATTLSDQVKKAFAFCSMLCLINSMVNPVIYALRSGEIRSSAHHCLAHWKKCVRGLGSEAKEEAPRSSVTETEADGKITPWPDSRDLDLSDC

Structure (SMILES)	inhibition at 10 µM (human CB1 receptor; [1])	inhibition at 10 µM (human CB2 receptor)	EC50 (ABCA1 protein)	% increase of ABCA1 at 3 μM (ABCA1 protein)	inhibition at 10 µM (human CB1 receptor)
CN(NC(=O)c1cnc(OCC2CC2)c(C2CC2)c1)c1ccc(F)cc1 [Example 41, 5-cyclopropyl-6-cyclopropylmethoxy-nicotinic acid N′-(4-fluoro-phenyl)-N′-methyl-hydrazide]	29%	38%	1.1 µM	–	–
C[C@@H]1CN(NC(=O)c2cnc(OCC(F)(F)F)c(C3CC3)c2)C[C@H](C)O1 [Example 44, 5-cyclopropyl-N-((2R,6S)-2,6-dimethyl-morpholin-4-yl)-6-(2,2,2-trifluoro-ethoxy)-nicotinamide]	14%	5%	–	>45%@ 3 μM	–
CN(NC(=O)c1cnc(OC2CCC2)c(C2CC2)c1)c1ccc(F)cc1 [Example 47, 6-cyclobutoxy-5-cyclopropyl-nicotinic acid N′-(4-fluoro-phenyl)-N′-methyl-hydrazide]	25%	7%	–	>45%@ 3 μM	–
O=C(NNc1ccc(F)cc1)c1cnc(OC2CCC2)c(-c2ccco2)c1 [Example 48, 6-cyclobutoxy-5-furan-2-yl-nicotinic acid N′-(4-fluoro-phenyl)-hydrazide]	43%	-2%	0.8 µM	–	–
O=C(NN1CCC(O)CC1)c1cnc(OC2CCC2)c(-c2ccco2)c1 [Example 50, 6-cyclobutoxy-5-furan-2-yl-N-(4-hydroxy-piperidin-1-yl)-nicotinamide]	15%	6%	0.16 µM	–	–
CN(NC(=O)c1cnc(OC2CCC2)c(-c2ccco2)c1)c1ccc(Cl)nn1 [Example 51, 6-cyclobutoxy-5-furan-2-yl-nicotinic acid N′-(6-chloro-pyridazin-3-yl)-N′-methyl-hydrazide]	–	-4%	0.47 µM	–	30%
CN(NC(=O)c1cnc(OC2CCC2)c(-c2ccco2)c1)c1ccncc1 [Example 52, 6-cyclobutoxy-5-furan-2-yl-nicotinic acid N′-methyl-N′-pyridin-4-yl-hydrazide]	31%	19%	5.8 µM	–	–
CN(NC(=O)c1cnc(OC2CCC2)c(C2CC2)c1)c1ccc(C#N)cc1 [Example 55, 6-cyclobutoxy-5-cyclopropyl-nicotinic acid N′-(4-cyano-phenyl)-N′-methyl-hydrazide]	27%	18%	–	>45%@ 3 μM	–
CN(NC(=O)c1cnc(OCC(F)(F)F)c(-c2cccc(F)c2)c1)c1ccccc1 [Example 56, 5-(3-fluoro-phenyl)-6-(2,2,2-trifluoro-ethoxy)-nicotinic acid N′-methyl-N′-phenyl-hydrazide]	28%	16%	–	>45%@ 3 μM	–

The next lines start with results.

inhibition at 10 µM (human CB1 receptor; [1])	inhibition at 10 µM (human CB2 receptor)	Structure (SMILES)	EC50 (ABCA1 protein)	% increase of ABCA1 at 3 μM (ABCA1 protein)	inhibition at 10 µM (human CB1 receptor)
11%	9%	O=C(NNc1ccc(F)cc1)c1cnc(OCC2CC2)c(C2CC2)c1 [Example 42]	3.2 µM	–	–
28%	39%	CN(NC(=O)c1cnc(OCC2CC2)c(C2CC2)c1)c1ccccc1 [Example 43, 5-cyclopropyl-6-cyclopropylmethoxy-nicotinic acid N′-methyl-N′-phenyl-hydrazide]	1.04 µM	–	–
19%	17%	C[C@@H]1CN(NC(=O)c2cnc(OCC3CC3)c(C3CC3)c2)C[C@H](C)O1 [Example 45, 5-cyclopropyl-6-cyclopropylmethoxy-N-((2R,6S)-2,6-dimethyl-morpholin-4-yl)-nicotinamide]	9.4 µM	–	–
11%	11%	O=C(NNCc1ccncc1)c1cnc(OCC(F)(F)F)c(C2CC2)c1 [Example 46, 5-cyclopropyl-6-(2,2,2-trifluoro-ethoxy)-nicotinic acid N′-pyridin-4-ylmethyl-hydrazide]	–	>45%@ 3 μM	–
13%	3%	CN(NC(=O)c1cnc(OCC(F)(F)F)c(C2CC2)c1)c1ccncc1 [Example 49, 5-cyclopropyl-6-(2,2,2-trifluoro-ethoxy)-nicotinic acid N′-methyl-N′-pyridin-4-yl-hydrazide]	–	>45%@ 3 μM	–
47%	48%	CN(NC(=O)c1cnc(OCC2CC2)c(C2CC2)c1)c1ccc(C#N)cc1 [Example 53, 5-cyclopropyl-6-cyclopropylmethoxy-nicotinic acid N′-(4-cyano-phenyl)-N′-methyl-hydrazide]	–	>45%@ 3 μM	–
36%	17%	CN(NC(=O)c1cnc(OCC(F)(F)F)c(C2CC2)c1)c1ccc(C#N)cc1 [Example 54, 5-cyclopropyl-6-(2,2,2-trifluoro-ethoxy)-nicotinic acid N′-(4-cyano-phenyl)-N′-methyl-hydrazide]	–	>45%@ 3 μM	–
